Assay [1] concerns the target T1, human ENT1 (Homo sapiens, UniProt Q99808).
T1 construct: JAR cells expressing ENT1 were purchased from ATCC; host or cells: JAR cells
T1 sequence (Q99808 1-456): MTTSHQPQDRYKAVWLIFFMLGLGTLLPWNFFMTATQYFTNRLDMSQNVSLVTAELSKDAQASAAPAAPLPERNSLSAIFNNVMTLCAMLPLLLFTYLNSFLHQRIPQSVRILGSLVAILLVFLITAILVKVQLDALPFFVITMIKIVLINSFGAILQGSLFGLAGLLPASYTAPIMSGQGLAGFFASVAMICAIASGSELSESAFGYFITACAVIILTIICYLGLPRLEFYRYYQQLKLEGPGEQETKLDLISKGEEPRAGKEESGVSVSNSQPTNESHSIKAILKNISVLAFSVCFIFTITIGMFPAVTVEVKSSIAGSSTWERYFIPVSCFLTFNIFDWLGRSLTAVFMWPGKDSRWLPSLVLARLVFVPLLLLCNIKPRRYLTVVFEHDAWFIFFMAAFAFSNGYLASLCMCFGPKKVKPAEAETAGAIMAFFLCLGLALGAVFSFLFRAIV
Briefly: Uridine transport inhibition assay, ENT1-mediated uptake in MDCKII cells. The format is cell-based. To be noted: MDCKIIENT1-LV cells, probe uridine 1 μM, pre-incubation 30 min, incubation 1 min. Here is the method: (§1) The goal of this study was to determine the potency and selectivity of ENT1 inhibitors by measuring ENT1 and ENT2-mediated transport using an in vitro cellular uptake assay.
(§2) Human ENT1 and ENT2 transporters were stably expressed in Madin-Darby Canine Kidney II (MDCKII) cells via transduction. Cell lines overexpressing the relevant ENT1 or ENT2 molecules were preincubated with a dose range of the relevant compound for 30 minutes before introduction of the specific substrate at the concentration indicated in the Table assay parameters below. The transporter assay was conducted for the time specified in the Table assay parameters before the specific uptake of the substrate into the cells was quantified. Specific uptake was determined by comparing the uptake from the cells treated with the relevant compounds and the uptake by cells not overexpressing the transporter in question.
(§3) Specific uptake for each concentration of the test sample was normalized to the DMSO control value to generate a relative accumulation value (or relative transporter activity). Data were plotted against the log molar concentration of the test reagent used. IC50 values were generated with Prism version 9.4.1 and the following function: log(inhibitor) vs. response—Variable slope (four parameters).

In assay [2] the target is T1, human ENT1. Briefly: ENT1 binding assay (competition with Sahenta-DY647 on JAR cells). To be noted: competition with SAHENTA-DY647 binding; IC50 categorized; read-out: Binding Assay IC50. A digest of the protocol:
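Fluorescent-tracer displacement: compound incubated with JAR cells 30 min, 4 °C, before Sahenta-DY647 (100 nM) for another 30 min, 4 °C, in Hepes-buffered HBSS with 0.1% BSA. Bound tracer read at 670 nm after washes; IC50 from four-parameter fit, reported as mean of pIC50 values.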

In a further assay the target is T2, Human ENT2 (Homo sapiens, UniProt Q14542).
T2 construct: expressed in transfected cells
T2 sequence (Q14542 1-456): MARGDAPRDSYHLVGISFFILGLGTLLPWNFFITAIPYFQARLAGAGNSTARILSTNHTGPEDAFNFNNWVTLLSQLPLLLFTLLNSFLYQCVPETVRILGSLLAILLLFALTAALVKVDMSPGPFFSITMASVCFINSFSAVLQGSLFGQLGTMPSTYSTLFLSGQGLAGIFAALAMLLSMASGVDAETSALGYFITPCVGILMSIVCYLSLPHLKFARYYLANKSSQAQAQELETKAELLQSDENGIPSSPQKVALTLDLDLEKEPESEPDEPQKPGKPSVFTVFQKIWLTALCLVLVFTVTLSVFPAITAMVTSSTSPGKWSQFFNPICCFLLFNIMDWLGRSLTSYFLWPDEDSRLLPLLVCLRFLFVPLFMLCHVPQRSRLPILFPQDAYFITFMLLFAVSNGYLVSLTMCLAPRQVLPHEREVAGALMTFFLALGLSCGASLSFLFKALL
Briefly: Adenosine uptake assay, ENT2-mediated transport in MDCKII cells. Type of assay: cell-based. The note with it: MDCKIIENT2-LV cells, probe adenosine 0.5 μM, pre-incubation 30 min, incubation 10 min. The procedure: as §1, §2, §3

Bounds are passed on as bounds.

As for `C[C@H]1O[C@@H](n2cnc3c(SCc4ccc([N+](=O)[O-])cc4)ncnc32)[C@H](O)[C@@H]1O` [Compound 147], the IC50 (usually the point on the concentration scale where inhibition reaches its midpoint) at human ENT1 [1] was less than 0.1 nM; at human ENT1 [2], 1 to 20 nM; on Human ENT2 it was more than 1000 nM.
As to `OCCOC[C@H]1O[C@@H](n2cnc3c(OCc4ccc(OC(F)(F)F)cc4)ncnc32)[C@H](O)[C@@H]1O` [Compound 175], the IC50 against human ENT1 [1] was 0.1 to 2 nM; on human ENT1 [2] it was 20 to 500 nM; on Human ENT2, more than 1000 nM.
With `C[C@H]1O[C@@H](n2cnc3c(OCc4ccc([N+](=O)[O-])cc4)ncnc32)[C@H](O)[C@@H]1O` [Compound 166], the IC50 against human ENT1 [1] is 0.1 to 2 nM; on human ENT1 [2], 20 to 500 nM; against Human ENT2, more than 1000 nM.
With `C[C@H]1O[C@@H](n2cnc3c(N4CCc5ccc([N+](=O)[O-])cc5C4)ncnc32)[C@H](O)[C@@H]1O` [Compound 151], the IC50 against human ENT1 [1] is 0.1 to 2 nM; at human ENT1 [2], 1 to 20 nM; at Human ENT2 it was more than 1000 nM.
Consider `C[C@H]1O[C@@H](n2cnc3c(OCc4ccc(OC(F)F)cc4)ncnc32)[C@H](O)[C@@H]1O` [Compound 173], for which the IC50 against human ENT1 [1] was 0.1 to 2 nM; at human ENT1 [2], 20 to 500 nM; against Human ENT2 it was more than 1000 nM.
The corresponding values for `C[C@H]1O[C@@H](n2c(NC3CCOCC3)nc3c(OCc4ccc(C#N)cc4)ncnc32)[C@H](O)[C@@H]1O` [Compound 73] are 0.1 to 2 nM, less than 1 nM and 20 to 1000 nM.
On to `C[C@H]1O[C@@H](n2c(NC3CCOCC3)nc3c(OCc4ccc(OC(F)F)nc4)ncnc32)[C@H](O)[C@@H]1O` [Compound 75], for which the IC50 was 0.1 to 2 nM against human ENT1 [1], less than 1 nM on human ENT1 [2] and 20 to 1000 nM against Human ENT2.
On to `C[C@H]1O[C@@H](n2c(NC3CCC(O)CC3)nc3c(OCc4ccc([N+](=O)[O-])cc4)ncnc32)[C@H](O)[C@@H]1O` (stereo partly drawn) [Compound 28], for which the IC50 on human ENT1 [1] is 0.1 to 2 nM; at human ENT1 [2], less than 1 nM; on Human ENT2, more than 1000 nM.
For the compound `C[C@H]1O[C@@H](n2c(N[C@H]3CCC(F)(F)C3)nc3c(OCc4ccc(C#N)cc4)ncnc32)[C@H](O)[C@@H]1O` [Compound 82], the IC50 at human ENT1 [1] lay within 0.1 to 2 nM; on human ENT1 [2] it was 1 to 20 nM; on Human ENT2 it was 20 to 1000 nM.
In the case of `C[C@H]1O[C@@H](n2c(NC3CCCC3)nc3c(OCc4ccc([N+](=O)[O-])cc4)ncnc32)[C@H](O)[C@@H]1O` [Compound 6], the results for the IC50 against human ENT1 [1], on human ENT1 [2] and against Human ENT2 were 0.1 to 2 nM, less than 1 nM and 20 to 1000 nM, respectively.

Values taken from patent US20260184712A1, “Heterocyclic Compounds as ENT Inhibitors and Compounds for Use in the Treatment of Cancers” (iTeos Belgium SA, priority 2022, published 2026).
